# Measurements published in patent US8114638B2, “Arabinitol dehydrogenase from Neurospora crassa” (The Board of Trustees of the University of Illinois, priority 2007, dated 2012).
# Where two headings read alike, the source gives them in different places. Marks after values point to notes of the source that are not given here.
# Columns and labels:
# N. crassa LAD [1] = biological target: T1, N. crassa LAD (Neurospora crassa, UniProt Q7SI09); details: for % Activity: relative to L-arabinitol = 100, 50 mM Tris pH 8.0, saturated NAD+
# Protocol: (§1) Initial rates were determined using a Varian Cary 100 Bio UV-visible spectrophotometer (Varian) at 25° C. in 50 mM Tris (pH 8.0). […] Kinetic measurements with substrate L-arabinitol and cofactor NAD^+ were taken in a 5-by-5 matrix format, with substrate and cofactor concentrations varied from below their Km to 10-fold higher than their Km. The kinetic data were analyzed with a modified version of Cleland's program (Cleland, W. W. (1979) Statistical analysis of enzyme kinetic data, Methods Enzymol 63, 103-138.). Vmax and Km for both L-arabinitol and NAD^+ were obtained by fitting the data to a sequential ordered mechanism with NAD^+ binding first, based on the proposed mechanism for sorbitol dehydrogenase (Lindstad et al. (1992) The kinetic mechanism of sheep liver sorbitol dehydrogenase, Eur J Biochem 210, 641-647.) v=VmaxAB/(KiaKB+KAB+KBA+AB) (EQ. 1)
# where v is the initial velocity, Vmax is the maximum velocity, KA and KB are the Michaelis-Menten constants for NAD+ and L-arabinitol, respectively, A and B are the concentrations of NAD+ and L-arabinitol, respectively, and Kia is the dissociation constant for NAD+.
# Kinetics. The data were used to calculate the kinetic constants for various substrates by fitting the Michaelis-Menten equation using Origin 5.0. […] The data represent averages of assays performed in duplicate or triplicate on two separate occasions.
# N. crassa LAD [2] = biological target: T1, N. crassa LAD; test: Cofactor specificity of N. crassa LAD by HPLC; type: biochemical; design: GST (glutathione S-transferase), with thrombin cleavage site (N, cleaved yes); made in house; host or cells: Escherichia coli BL21(DE3), vector pGEX-4T-3 (pGEX-lad1); details: 1 mM NAD(P)+, 25 mM L-arabinitol, 50 mM Tris pH 8.0, 20 min at 37° C., UV 340 nm
# Protocol: The cofactor specificity of N. crassa LAD was examined by HPLC. The separation of NAD+, NADP+, NADH, and NADPH was carried out using standard methods. No discernible cross-contamination of oxidized cofactors was observed. 20 μL reaction mixtures consisting of equal parts of 1 mM NAD(P)+ and 25 mM L-arabinitol in 50 mM Tris (pH 8.0) were set up, and following addition of approximately 1 μg of enzyme, the reaction was allowed to proceed for 20 min at 37° C. […] This indicated the strong preference for NAD+ as the cofactor of N. crassa LAD.
# HPLC analysis. The enzyme (1 μg) was incubated in a mixture of buffer and 25 mM L-arabinitol with 1 mM NAD(P)+ at 37° C. for 20 min. The sample was eluted on a Zorbax 3.0×150 mm C-18 (3.5 μm) column with a UV detector (Agilent 1100 series). The eluent consisted of two components: 0.1 M KH2PO4 containing 5 mM tetrabutylammonium hydrogen sulfate (pH 5.5) (buffer A) and 100% methanol (buffer B). The most suitable gradient was an initial isocratic step for 6 min at 93% buffer A, a gradient for 5 min from 7 to 30% buffer B, and a final isocratic step for 5 min at 30% buffer B.
# [3] = Kinetic parameters of LAD from various source organisms; type: biochemical; details: greater
# Protocol: as §1
# [4] = LADs of other organisms, from references, cited from earlier work
# [5] = 4° C. and freeze-thawing; cited from earlier work
# [6] = with indicated substrate, 25° C., 50 mM Tris pH 8.0, saturated NAD+ (2 mM)
molecule,measurement,setting,value
"OC[C@@H](O)[C@@H](O)[C@@H](O)CO [Adonitol, adonitol]",Km,"N. crassa LAD [1]; read-out: Km (mean ± SD), with indicated substrate, 25° C., 50 mM Tris pH 8.0, saturated NAD+ (2 mM)",35 ± 3 mM
same,% Activity,N. crassa LAD [1]; 25° C.,46%
same,kcat (mean ± SD),N. crassa LAD [1]; [6],"1,080 ± 30 min^−1"
"OC[C@@H](O)C(O)[C@H](O)CO [D-Arabinitol, D-arabinitol]",activity as substrate or cofactor of N. crassa LAD (in words),N. crassa LAD [1],No activity was observed
same,% Activity,N. crassa LAD [1]; 25° C.,0%
"OC[C@@H](O)[C@@H](O)[C@H](O)[C@H](O)CO [D-Mannitol, D-mannitol]",activity as substrate or cofactor of N. crassa LAD (in words),N. crassa LAD [1],No activity was observed
same,% Activity,N. crassa LAD [1]; 25° C.,0%
"OC[C@@H](O)[C@@H](O)[C@H](O)[C@@H](O)CO [D-Sorbitol, D-sorbitol]",activity as substrate or cofactor of N. crassa LAD (in words),N. crassa LAD [1],No activity was observed
same,% Activity,N. crassa LAD [1]; 25° C.,0^c %
"OC[C@H](O)C(O)[C@@H](O)CO [L-Arabinitol, L-arabinitol]",Km,N. crassa LAD [1]; read-out: Km value for substrate,16 mM
same,% Activity,N. crassa LAD [1]; 25° C.,100%
"NC(=O)c1ccc[n+]([C@@H]2O[C@H](COP(=O)([O-])OP(=O)(O)OC[C@H]3O[C@@H](n4cnc5c(N)ncnc54)[C@H](O)[C@@H]3O)[C@@H](O)[C@H]2O)c1 [NAD, NAD+]",Km,"N. crassa LAD [1]; read-out: Km for L-arabinitol (mean ± SD), with indicated coenzyme, 25° C., 50 mM Tris pH 8.0",16 ± 3 mM
same,Km,"N. crassa LAD [1]; read-out: Km for NAD(P) (mean ± SD), 25° C., 50 mM Tris pH 8.0, substrate L-arabinitol",0.174 mM
same,kcat (mean ± SD),"N. crassa LAD [1]; with indicated coenzyme, 25° C., 50 mM Tris pH 8.0, substrate L-arabinitol","1,206 ± 54 min^−1"
same,reduced cofactor peak by HPLC (in words),N. crassa LAD [2],a single peak (UV 340 nm) was observed that had the same retention time as authentic NADH
"NC(=O)c1ccc[n+]([C@@H]2O[C@H](COP(=O)([O-])OP(=O)(O)OC[C@H]3O[C@@H](n4cnc5c(N)ncnc54)[C@H](OP(=O)(O)O)[C@@H]3O)[C@@H](O)[C@H]2O)c1 [NADP, NADP+]",activity as substrate or cofactor of N. crassa LAD (in words),N. crassa LAD [1]; listed as NADP+,small yet detectable activity
same,activity as substrate or cofactor of N. crassa LAD (in words),N. crassa LAD [1]; listed as NADP^+,very low yet detectable activity
same,reduced cofactor peak by HPLC (in words),N. crassa LAD [2],a small yet detectable peak was observed with a retention time corresponding to an authentic sample of NADPH
"OC[C@@H](O)[C@H](O)[C@@H](O)CO [Xylitol, xylitol]",% Activity,N. crassa LAD [1]; 25° C.,4.9%
same,kcat (mean ± SD),N. crassa LAD [1]; [6],970 ± 40 min⁻¹
A. niger: L-arabinitol 4-dehydrogenase from Aspergillus niger (literature),specific activity relative to N. crassa LAD,[3],about 3 fold
same,Specific activity,[4],96 U/mg
same,Km,"[4]; read-out: Km,L-arabinitol",89 mM
same,Km,"[4]; read-out: Km,NAD+",0.05 mM
same,stability of purified enzyme as reported (in words),[5],"highly unstable, with rapidly diminishing activity at 4° C., and complete loss of activity after freeze-thawing of the enzyme"
A. oryzae: L-arabinitol 4-dehydrogenase from Aspergillus oryzae (literature),Specific activity,[4],0.04 U/mg
H. jecorina: L-arabinitol 4-dehydrogenase from Hypocrea jecorina (literature; two table lines from different references),kcat,[4],0.85 s⁻¹
same,Km,"[4]; read-out: Km,NAD+",0.18 mM
